PMC10077475, “DG9-conjugated morpholino rescues phenotype in SMA mice by reaching the CNS via a subcutaneous administration” (JCI Insight, 2023)

System: severe SMA mouse model (Taiwanese model)
Assay: Survival of severe SMA mice after a single subcutaneous injection at PD0
Assay type: in vivo
Conditions: single subcutaneous injection at PD0, 40 mg/kg, until humane endpoint
Method: To examine whether DG9 peptide can increase the efficacy of PMO, we conjugated it to an 18-mer PMO with a sequence identical to nusinersen. The DG9-PMO, unconjugated PMO, and MOE were injected into SMA model mice [Cg-Tg(SMN2)2HungSmn1^tm1Hung/J; abbreviated as Smn^–/– SMN2^Tg/Tg; commonly called the Taiwanese model]. We also used an arginine-rich peptide (R6G) that is currently being explored in clinical trials for Duchenne muscular dystrophy (DMD) and used in preclinical studies for Hutchinson-Gilford progeria syndrome ([37], [38]). The benchmark control peptide R6G was conjugated to the same PMO sequence used in our study (R6G-PMO). […] We subcutaneously injected mice with the AOs or saline (nontreated, NT) administered at postnatal day 0 (PD0) at 2 doses: 40 mg/kg or 80 mg/kg. In our preliminary experiments, we also tested lower doses of 10 and 20 mg/kg (data not shown). […] The survival was recorded until a humane endpoint was reached. For the 40 mg/kg doses, the median survival was 12 days for unconjugated PMO, 15.5 days for MOE, and 17 days for R6G-PMO, which was increased to 58 days for DG9-PMO treatment (Figure 1A and Supplemental Figure 1A; supplemental material available online with this article; https://doi.org/10.1172/jci.insight.160516DS1). The median survival increased to 57 days for unconjugated PMO, 64 days for MOE, and 121 days for DG9-PMO at the higher dose of 80 mg/kg (Figure 1A). […] In spite of no statistical difference between DG9-PMO and MOE groups, the median survival of DG9-PMO still was higher than MOE, as only 1 mouse was alive until PD200 following a 40 mg/kg injection of MOE.
SMA-transgenic mice [JAX stock 005058 FVB.Cg-Tg(SMN2)2HungSmn1^tm1Hung/J] (Smn^–/–; SMN2^Tg/Tg), also known as Taiwanese mice, were purchased from Jackson Laboratory. Heterozygous mice for Smn1 (Smn1^+/–; SMN2^–/–) generated by us were crossed with mice homozygous for Smn1 Smn^–/–; SMN2^Tg/Tg generated by us to obtain the SMA mice (Smn^–/–; SMN2^Tg/–) or the heterozygous healthy control (Smn1^+/–; SMN2^Tg/–). The SMA mice display a severe overt phenotype similar to patients with SMA type I. The mice were genotyped using a PCR assay on genomic DNA isolated from tail biopsies using the Phire Tissue Direct PCR Kit (Thermo Fisher Scientific) as per the manufacturer’s instructions. The DNA was amplified using the primers described in Supplemental Table 1 using the condition Mouse Smn: 98°C/5 minutes → 98°C/5 s 58°C/10 s 72°C/10 s × 35 cycles → 72°C/1 minute.
Injections were carried out using a 30-gauge Hamilton syringe. SMA mice identified following genotyping were randomly assigned to a treatment group. The researcher injecting mice was blinded to the treatment. SMA neonates were subcutaneously injected with 40 or 80 mg/kg of AOs at PD0, while NT and heterozygous control mice were injected with saline (n = 10–49) per group. Tissues including the quadriceps muscle, liver, kidney, spleen, diaphragm, intercostal muscle, heart, brain, and spinal cord were collected and snap-frozen in dry ice– cooled isopentane, then subsequently stored at –80°C.

Substance: RRRRRRG [R6G-PMO]
- median survival: 17 days
